Values of other authors, collected in patent US20260199259A1, “CONTROLLED LIPID SELF-ASSEMBLY FOR SCALABLE MANUFACTURING OF NEXTGENERATION IMMUNE STIMULATING COMPLEXES” (MASSACHUSETTS INSTITUTE OF TECHNOLOGY, priority 2022, published 2026).

Tests used:
chick embryo eggs = details: measured by lethal dose in chick embryo eggs

Substance	factor of toxicity reduction relative to LPS (chick embryo eggs)	micelle size (aqueous solutions)	solubility (in PBS)
4′-monophosporyl lipid A [MPLA]	more than 1000	–	–
QS-21	–	~ 7 nm	up to 30 mg/mL
